In general, Kd refers to the constant that tells how readily two partners part at equilibrium.

Residues, ends and D or L forms follow the SMILES beside them.

The assay concerns the target E3 peptide (21 amino acid). As to the kind of experiment: E/K coiled coil stability (length dependence, Figure S1), E3/K3 complex. Format: binding. Conditions: 21 aa long E3 and K3 peptides. The procedure: The PAINT process requires a dynamic equilibrium between bound and unbound states of the fluorescently labeled imager probe. In DNA-PAINT, this is achieved when the transiently formed duplexes have stabilities in the micromolar range (KD ≈ 1 μM). The interaction between the 21 amino acid (aa) long E3 and K3 peptides previously used for protein imaging[20]−[23] leads to a coiled coil complex with nanomolar stability (KD ≈ 20 nM, Figure S1). Aiming for the identification of a suitable weaker affinity, we investigated the length dependence of coiled coil stability (Figure S1).

As to `CC[C@H](C)[C@H](NC(=O)[C@H](CCCCN)NC(C)=O)C(=O)N[C@@H](C)C(=O)N[C@@H](C)C(=O)N[C@@H](CC(C)C)C(=O)N[C@@H](CCCCN)C(=O)N[C@@H](CCC(=O)O)C(=O)N[C@@H](CCCCN)C(=O)N[C@H](C(=O)N[C@@H](C)C(=O)N[C@@H](C)C(=O)N[C@@H](CC(C)C)C(=O)N[C@@H](CCCCN)C(=O)N[C@@H](CCC(=O)O)C(=O)N[C@@H](CCCCN)C(=O)N[C@H](C(=O)N[C@@H](C)C(=O)N[C@@H](C)C(=O)N[C@@H](CC(C)C)C(=O)N[C@@H](CCCCN)C(=O)N[C@@H](CCC(=O)O)C(N)=O)[C@@H](C)CC)[C@@H](C)CC` [K3] (Ac-KIAALKEKIAALKEKIAALKE-NH2), the Kd was roughly 20 nM.

Values taken from publication PMC7496730, “Peptide-PAINT Super-Resolution Imaging Using Transient Coiled Coil Interactions” (Nano Letters, 2020).
